20 compounds from the Deep4Chem optical property database can be followed below.

A short description of this data set: photoluminescence quantum yield (fraction); solvent given as SMILES.

The structures appear in SMILES notation.

On to `CC(C)[Si](C#Cc1c2ccc(C(C)(C)C)cc2c(C#Cc2c3ccc(C(C)(C)C)cc3c(C#Cc3c4ccc(C(C)(C)C)cc4c(C#C[Si](C(C)C)(C(C)C)C(C)C)c4ccc(C(C)(C)C)cc34)c3ccc(C(C)(C)C)cc23)c2ccc(C(C)(C)C)cc12)(C(C)C)C(C)C`, for which the photoluminescence quantum yield (in Cc1ccccc1) came out at 0.022. For the compound `CC(=O)Nc1cc2ccc3cccc4ccc(c1)c2c34`, the photoluminescence quantum yield runs as follows: (in CC#N) 0.09; (in CCCCOCCCC) 0.1; (in CO) 0.07.

Consider `CCCCCCC1(CCCCCC)c2cc(-c3ccc(-c4ccc(-c5ccc(-c6ccc7c(c6)C(CCCCCC)(CCCCCC)c6cc(-n8c9ccccc9c9ccccc98)ccc6-7)s5)c5nsnc45)s3)ccc2-c2ccc(-n3c4ccccc4c4ccccc43)cc21`, for which the photoluminescence quantum yield (in ClCCl) was 0.39. As to `COC(=O)[C@]12N=N[C@](C(=O)OC)(C3C4C5C4C5C31)C1C3C4C3C4C12` (stereo not given in full), the photoluminescence quantum yield (in CC#N) stood at 0.039.

Consider `COc1ccc(C#Cc2ncc(-c3ccccc3)o2)cc1OC`, for which the photoluminescence quantum yield (in ClCCl) stood at 0.04. On to `Cn1c2ccc(S(=O)(=O)Cl)cc2c(=O)c2cc(S(=O)(=O)Cl)ccc21`, for which, for the setting “in CS(C)=O”, the photoluminescence quantum yield was determined as 0.7.

Take `F[B-]1(F)n2c(Nc3cccc4cccnc34)ccc2C(c2ccccc2)=C2C=CC(Cl)=[N+]21`: the photoluminescence quantum yield is, setting by setting: (in C1CCCCC1) 0.17; (in CC#N) 0.0024; (in Cc1ccccc1) 0.04; (in ClC(Cl)Cl) 0.01.

Where the note is “in ClCCl”, `CN(C)c1ccc(-c2cc(-c3ccc(N(C)C)cc3)ncn2)cc1` yielded a photoluminescence quantum yield of 0.72. Turning to `c1cc(-c2ccc3c(c2)CCCO3)ccc1-c1ccc2c(c1)CCCO2`, the photoluminescence quantum yield (in C1CCCCC1) was found to be 0.6.

Turning to `Cc1cc(-c2nnc(-c3c(C(C)C)cc(C(C)C)cc3C(C)C)o2)ccc1-n1c2ccccc2c2ccccc21`, the photoluminescence quantum yield (in Cc1ccccc1) came out at 0.38.

`Cc1ccc(C2=C3C=CC4=[N+]3[P-](=O)(=O)n3c2ccc3-c2ccc([nH]2)/C(c2ccc(C)cc2)=c2/cc/c(o2)=C(\c2ccc(C)cc2)c2ccc4[nH]2)cc1` came in with a photoluminescence quantum yield (in ClC(Cl)Cl) of 0.18. In the case of `COc1ccc(O)c(-c2[nH]c(=O)n3c2-c2ccccc2C3=O)c1`, the photoluminescence quantum yield (in CC#N) stood at 0.46, the photoluminescence quantum yield (in CO) was found to be 0.01 and the photoluminescence quantum yield (in ClCCl) is 0.66. For the compound `Cc1cc(C2=C(c3c(C)sc(-c4ccc(-c5nc(-c6ccccc6)c(-c6ccccc6)[nH]5)cc4)c3C)C(F)(F)C(F)(F)C2(F)F)c(C)s1`, where the note is “in C1CCOC1”, the photoluminescence quantum yield stood at 0.077. The compound `COc1ccc(C#Cc2c3cc4ccccc4cc3c(C#C[Si](C(C)C)(C(C)C)C(C)C)c3cc4ccccc4cc23)cc1` came in with a photoluminescence quantum yield (in ClCCl) of 0.05.

Take `CCCCCCCCn1c(=O)c2cc3c(C#Cc4ccc(N(c5ccccc5)c5ccccc5)cc4)c4cc5c(=O)n(CCCCCCCC)c(=O)c5cc4c(C#Cc4ccc(N(c5ccccc5)c5ccccc5)cc4)c3cc2c1=O`: the photoluminescence quantum yield (in ClC(Cl)Cl) came to 0.53. On the same count and under the same terms, the result for `CC[Si](C)(C)c1cc2ccc3cccc4ccc(c1C(=O)NC(C)(C)C)c2c34` reads 0.156.

With `Cc1ccc([C@@H]2C[C@](O)(c3ccccn3)C[C@](O)(c3ccccn3)[C@H]2C(=O)c2ccc(N(c3ccccc3)c3ccccc3)cc2)cc1`, the photoluminescence quantum yield came out at 0.54 (in C1CCOC1); 0.02 (in CC#N); 0.01 (in CCO); 0.44 (in CCOC(C)=O); 0.03 (in CN(C)C=O); 0.27 (in ClCCl). In addition, where the note is “in c1ccccc1”, the photoluminescence quantum yield worked out at 0.97.

As to `C(=C\c1cc(/C=C/c2ccc(N(c3ccccc3)c3ccccc3)cc2)nc(/C=C/c2ccc(N(c3ccccc3)c3ccccc3)cc2)n1)/c1ccc(N(c2ccccc2)c2ccccc2)cc1`, the photoluminescence quantum yield (in ClCCl) was 0.56.

`COCCC1=Cc2nc1ccc1[nH]c(cc1CCOC)c1nc(c(OC)cc3[nH]c2cc3CCOC)C(CCOC)=C1` came in with a photoluminescence quantum yield (in Cc1ccccc1) of 0.18. As for `CCOC(=O)CN1C(=O)C2=C(c3ccc(C#N)cc3)N(CC(=O)OCC)C(=O)C2=C1c1ccc(C#N)cc1`, the photoluminescence quantum yield runs as follows: (in CC#N) 0.32; (in CS(C)=O) 0.72; (in Cc1ccccc1) 0.29.
